Laboratory results: US10870647B2, “Imidazopyridine derivative, method for preparing same, and pharmaceutical composition containing same as active ingredient for preventing or treating cancer” (DAEGU-GYEONGBUK MEDICAL INNOVATION FOUNDATION, priority 2016, dated 2020)
Like-named read-outs stand apart in the source and are kept apart here.

Assays:
Assay in all cases: Kinase selectivity, scanMAX Kinase assay panel (DiscoverX), % control at 1 uM
Format in all cases: binding
[1] = biological target: T1, scanMAX Kinase assay panel (Homo sapiens, UniProt P00533, DEL752-759); conditions: EGFR (S752-I759del); 1 uM; read-out: Percent Control (%)
T1 construct: purchased DiscoverX
Procedure, shortened: (§1)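 Binding across the scanMAX kinase panel was tested at 1 uM compound. % control = (compound − positive control)/(negative control − positive control) × 100; below 35 counted as active.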

[2] = biological target: T2, scanMAX Kinase assay panel (Homo sapiens, UniProt Q00532); conditions: CDKL1; 1 uM; read-out: Percent Control (%)
T2 construct: purchased DiscoverX
Procedure, shortened: as §1

[3] = biological target: T3, scanMAX Kinase assay panel (Homo sapiens, UniProt P49840); conditions: GSK3A; 1 uM; read-out: Percent Control (%)
T3 construct: purchased DiscoverX
Procedure, shortened: as §1

[4] = biological target: T4, scanMAX Kinase assay panel (Homo sapiens, UniProt O00141); conditions: SGK; 1 uM; read-out: Percent Control (%)
T4 construct: purchased DiscoverX
T4 sequence (O00141 1-431): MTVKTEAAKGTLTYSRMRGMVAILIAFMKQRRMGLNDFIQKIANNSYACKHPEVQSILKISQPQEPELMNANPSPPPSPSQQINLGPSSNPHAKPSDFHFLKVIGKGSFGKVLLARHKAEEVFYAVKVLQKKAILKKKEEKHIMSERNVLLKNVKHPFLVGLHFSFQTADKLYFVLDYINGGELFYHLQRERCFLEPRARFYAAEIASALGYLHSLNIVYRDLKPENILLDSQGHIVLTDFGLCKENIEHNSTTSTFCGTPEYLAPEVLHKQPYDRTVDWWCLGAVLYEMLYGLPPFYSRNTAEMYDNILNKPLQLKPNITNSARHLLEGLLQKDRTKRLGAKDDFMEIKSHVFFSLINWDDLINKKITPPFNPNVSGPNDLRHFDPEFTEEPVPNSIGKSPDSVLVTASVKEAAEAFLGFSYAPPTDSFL
Procedure, shortened: as §1

[5] = biological target: T5, scanMAX Kinase assay panel (Homo sapiens, UniProt P29597); conditions: 1 uM, read-out: Percent Control (%)
T5 construct: purchased DiscoverX
Procedure, shortened: as §1

[6] = biological target: T6, scanMAX Kinase assay panel (Homo sapiens, UniProt Q14004); conditions: CDC2L5; 1 uM; read-out: Percent Control (%)
T6 construct: purchased DiscoverX
Procedure, shortened: as §1

[7] = biological target: T7, scanMAX Kinase assay panel (Homo sapiens, UniProt Q99755); conditions: PIP5K1A; 1 uM; read-out: Percent Control (%)
T7 construct: purchased DiscoverX
Procedure, shortened: as §1

[8] = biological target: T8, scanMAX Kinase assay panel (Homo sapiens, UniProt Q08345); conditions: DDR1; 1 uM; read-out: Percent Control (%)
T8 construct: purchased DiscoverX
Procedure, shortened: as §1

[9] = biological target: T9, scanMAX Kinase assay panel (Homo sapiens, UniProt P00533, G719C); conditions: EGFR (G719C); 1 uM; read-out: Percent Control (%)
T9 construct: purchased DiscoverX
Procedure, shortened: as §1

[10] = biological target: T10, scanMAX Kinase assay panel (Homo sapiens, UniProt Q8N4C8); conditions: MINK; 1 uM; read-out: Percent Control (%)
T10 construct: purchased DiscoverX
Procedure, shortened: as §1

[11] = biological target: T11, scanMAX Kinase assay panel (Homo sapiens, UniProt P54762); conditions: EPHB1; 1 uM; read-out: Percent Control (%)
T11 construct: purchased DiscoverX
T11 sequence (P54762 18-984): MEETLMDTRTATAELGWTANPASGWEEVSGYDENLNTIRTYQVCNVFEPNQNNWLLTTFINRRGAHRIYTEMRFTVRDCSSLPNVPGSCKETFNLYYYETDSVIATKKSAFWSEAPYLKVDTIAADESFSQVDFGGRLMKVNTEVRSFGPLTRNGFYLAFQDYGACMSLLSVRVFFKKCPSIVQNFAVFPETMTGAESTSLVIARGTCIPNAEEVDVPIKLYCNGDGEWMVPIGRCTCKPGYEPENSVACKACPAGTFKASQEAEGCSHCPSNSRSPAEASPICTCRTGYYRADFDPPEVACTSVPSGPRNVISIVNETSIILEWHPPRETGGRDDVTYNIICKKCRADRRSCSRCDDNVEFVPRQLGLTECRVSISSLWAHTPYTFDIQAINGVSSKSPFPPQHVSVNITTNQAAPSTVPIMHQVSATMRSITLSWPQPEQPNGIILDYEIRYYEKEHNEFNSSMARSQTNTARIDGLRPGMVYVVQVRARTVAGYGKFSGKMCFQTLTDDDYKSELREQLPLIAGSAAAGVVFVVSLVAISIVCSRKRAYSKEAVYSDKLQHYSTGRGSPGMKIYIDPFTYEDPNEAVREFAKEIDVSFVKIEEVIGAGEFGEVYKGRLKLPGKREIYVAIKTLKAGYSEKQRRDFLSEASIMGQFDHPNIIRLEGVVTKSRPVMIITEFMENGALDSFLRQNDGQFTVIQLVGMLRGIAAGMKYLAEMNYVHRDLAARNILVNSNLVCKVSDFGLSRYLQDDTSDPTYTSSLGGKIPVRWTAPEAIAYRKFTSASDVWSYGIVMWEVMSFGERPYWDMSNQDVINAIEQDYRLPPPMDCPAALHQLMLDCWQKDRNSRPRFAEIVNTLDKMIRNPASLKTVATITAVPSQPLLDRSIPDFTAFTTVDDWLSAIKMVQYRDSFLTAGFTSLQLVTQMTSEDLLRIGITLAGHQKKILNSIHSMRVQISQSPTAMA
Procedure, shortened: as §1

[12] = biological target: T12, scanMAX Kinase assay panel (Homo sapiens, UniProt Q05655); conditions: PRKCD; 1 uM; read-out: Percent Control (%)
T12 construct: purchased DiscoverX
Procedure, shortened: as §1

[13] = biological target: T13, scanMAX Kinase assay panel (Homo sapiens, UniProt Q9H2G2); conditions: SLK; 1 uM; read-out: Percent Control (%)
T13 construct: purchased DiscoverX
Procedure, shortened: as §1

T12 sequence (Q05655 whole entry): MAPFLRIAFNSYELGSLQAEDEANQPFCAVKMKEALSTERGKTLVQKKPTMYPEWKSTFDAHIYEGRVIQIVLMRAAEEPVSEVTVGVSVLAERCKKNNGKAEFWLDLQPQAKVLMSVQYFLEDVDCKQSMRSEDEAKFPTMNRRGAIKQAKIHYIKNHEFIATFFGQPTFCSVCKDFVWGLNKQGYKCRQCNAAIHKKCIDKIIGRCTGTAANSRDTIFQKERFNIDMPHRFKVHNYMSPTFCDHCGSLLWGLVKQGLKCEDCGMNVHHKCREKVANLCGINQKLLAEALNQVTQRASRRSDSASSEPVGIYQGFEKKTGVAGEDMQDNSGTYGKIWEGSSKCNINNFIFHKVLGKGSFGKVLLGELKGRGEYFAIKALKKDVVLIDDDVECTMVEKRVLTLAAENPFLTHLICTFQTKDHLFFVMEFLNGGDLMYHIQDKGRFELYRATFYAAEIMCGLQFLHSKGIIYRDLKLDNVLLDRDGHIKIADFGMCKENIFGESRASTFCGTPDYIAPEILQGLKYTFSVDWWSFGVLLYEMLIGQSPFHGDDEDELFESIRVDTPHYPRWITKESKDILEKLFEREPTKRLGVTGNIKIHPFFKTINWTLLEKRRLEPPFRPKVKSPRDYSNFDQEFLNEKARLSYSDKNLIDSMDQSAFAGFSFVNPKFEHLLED
T10 sequence (Q8N4C8 whole entry): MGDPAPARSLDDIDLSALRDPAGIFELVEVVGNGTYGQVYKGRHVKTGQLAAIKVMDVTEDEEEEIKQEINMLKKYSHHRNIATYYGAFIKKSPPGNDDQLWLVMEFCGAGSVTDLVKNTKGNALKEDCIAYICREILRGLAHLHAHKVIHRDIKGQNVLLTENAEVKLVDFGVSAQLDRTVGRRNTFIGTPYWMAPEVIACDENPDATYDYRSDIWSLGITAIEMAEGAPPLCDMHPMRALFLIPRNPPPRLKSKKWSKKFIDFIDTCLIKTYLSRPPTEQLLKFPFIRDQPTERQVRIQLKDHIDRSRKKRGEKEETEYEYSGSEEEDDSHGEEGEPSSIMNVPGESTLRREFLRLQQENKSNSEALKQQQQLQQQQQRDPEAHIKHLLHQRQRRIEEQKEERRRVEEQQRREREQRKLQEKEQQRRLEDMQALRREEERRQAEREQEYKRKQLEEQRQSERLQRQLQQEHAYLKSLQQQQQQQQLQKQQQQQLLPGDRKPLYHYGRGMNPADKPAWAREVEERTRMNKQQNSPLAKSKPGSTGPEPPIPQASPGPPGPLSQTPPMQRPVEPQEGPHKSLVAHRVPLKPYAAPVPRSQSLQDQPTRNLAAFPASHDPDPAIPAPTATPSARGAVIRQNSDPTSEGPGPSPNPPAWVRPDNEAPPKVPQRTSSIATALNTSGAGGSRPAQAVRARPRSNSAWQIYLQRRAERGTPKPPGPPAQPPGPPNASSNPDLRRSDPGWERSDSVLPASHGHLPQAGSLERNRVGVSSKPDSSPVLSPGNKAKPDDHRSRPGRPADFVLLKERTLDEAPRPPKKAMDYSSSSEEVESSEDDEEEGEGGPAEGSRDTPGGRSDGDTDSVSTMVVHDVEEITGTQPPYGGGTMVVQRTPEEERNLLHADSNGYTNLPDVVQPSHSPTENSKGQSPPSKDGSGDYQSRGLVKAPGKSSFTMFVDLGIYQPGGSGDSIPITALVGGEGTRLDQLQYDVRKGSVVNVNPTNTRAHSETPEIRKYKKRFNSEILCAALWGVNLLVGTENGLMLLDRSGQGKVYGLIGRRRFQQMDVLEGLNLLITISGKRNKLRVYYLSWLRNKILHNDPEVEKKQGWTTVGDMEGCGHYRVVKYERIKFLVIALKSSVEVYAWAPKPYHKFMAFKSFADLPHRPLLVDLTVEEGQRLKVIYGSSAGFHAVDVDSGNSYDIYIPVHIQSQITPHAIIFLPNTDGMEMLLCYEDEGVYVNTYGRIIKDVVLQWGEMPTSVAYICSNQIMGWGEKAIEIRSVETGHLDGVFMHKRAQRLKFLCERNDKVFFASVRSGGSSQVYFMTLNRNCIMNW
T2 sequence (Q00532 whole entry): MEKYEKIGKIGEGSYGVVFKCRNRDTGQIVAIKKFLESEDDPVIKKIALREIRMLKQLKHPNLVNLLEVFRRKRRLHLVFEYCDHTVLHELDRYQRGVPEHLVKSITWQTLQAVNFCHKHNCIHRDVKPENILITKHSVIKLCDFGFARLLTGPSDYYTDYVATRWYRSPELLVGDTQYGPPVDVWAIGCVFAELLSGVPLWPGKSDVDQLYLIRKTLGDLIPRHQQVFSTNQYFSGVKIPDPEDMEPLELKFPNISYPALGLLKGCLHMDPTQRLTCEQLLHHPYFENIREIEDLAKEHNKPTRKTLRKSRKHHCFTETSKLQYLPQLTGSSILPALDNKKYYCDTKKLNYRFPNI
T3 sequence (P49840 whole entry): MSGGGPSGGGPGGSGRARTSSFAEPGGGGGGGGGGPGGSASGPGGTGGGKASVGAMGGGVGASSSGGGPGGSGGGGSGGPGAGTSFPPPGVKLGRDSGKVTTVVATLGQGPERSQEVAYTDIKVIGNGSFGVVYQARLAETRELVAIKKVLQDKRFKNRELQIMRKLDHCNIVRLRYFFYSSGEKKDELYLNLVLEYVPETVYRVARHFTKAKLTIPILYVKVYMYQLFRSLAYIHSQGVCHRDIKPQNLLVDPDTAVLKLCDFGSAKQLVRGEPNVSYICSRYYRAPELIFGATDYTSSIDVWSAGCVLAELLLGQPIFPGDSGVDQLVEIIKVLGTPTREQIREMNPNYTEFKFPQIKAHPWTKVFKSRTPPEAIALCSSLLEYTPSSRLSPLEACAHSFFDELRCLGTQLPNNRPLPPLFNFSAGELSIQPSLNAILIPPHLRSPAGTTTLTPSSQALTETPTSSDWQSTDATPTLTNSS
T6 sequence (Q14004 whole entry): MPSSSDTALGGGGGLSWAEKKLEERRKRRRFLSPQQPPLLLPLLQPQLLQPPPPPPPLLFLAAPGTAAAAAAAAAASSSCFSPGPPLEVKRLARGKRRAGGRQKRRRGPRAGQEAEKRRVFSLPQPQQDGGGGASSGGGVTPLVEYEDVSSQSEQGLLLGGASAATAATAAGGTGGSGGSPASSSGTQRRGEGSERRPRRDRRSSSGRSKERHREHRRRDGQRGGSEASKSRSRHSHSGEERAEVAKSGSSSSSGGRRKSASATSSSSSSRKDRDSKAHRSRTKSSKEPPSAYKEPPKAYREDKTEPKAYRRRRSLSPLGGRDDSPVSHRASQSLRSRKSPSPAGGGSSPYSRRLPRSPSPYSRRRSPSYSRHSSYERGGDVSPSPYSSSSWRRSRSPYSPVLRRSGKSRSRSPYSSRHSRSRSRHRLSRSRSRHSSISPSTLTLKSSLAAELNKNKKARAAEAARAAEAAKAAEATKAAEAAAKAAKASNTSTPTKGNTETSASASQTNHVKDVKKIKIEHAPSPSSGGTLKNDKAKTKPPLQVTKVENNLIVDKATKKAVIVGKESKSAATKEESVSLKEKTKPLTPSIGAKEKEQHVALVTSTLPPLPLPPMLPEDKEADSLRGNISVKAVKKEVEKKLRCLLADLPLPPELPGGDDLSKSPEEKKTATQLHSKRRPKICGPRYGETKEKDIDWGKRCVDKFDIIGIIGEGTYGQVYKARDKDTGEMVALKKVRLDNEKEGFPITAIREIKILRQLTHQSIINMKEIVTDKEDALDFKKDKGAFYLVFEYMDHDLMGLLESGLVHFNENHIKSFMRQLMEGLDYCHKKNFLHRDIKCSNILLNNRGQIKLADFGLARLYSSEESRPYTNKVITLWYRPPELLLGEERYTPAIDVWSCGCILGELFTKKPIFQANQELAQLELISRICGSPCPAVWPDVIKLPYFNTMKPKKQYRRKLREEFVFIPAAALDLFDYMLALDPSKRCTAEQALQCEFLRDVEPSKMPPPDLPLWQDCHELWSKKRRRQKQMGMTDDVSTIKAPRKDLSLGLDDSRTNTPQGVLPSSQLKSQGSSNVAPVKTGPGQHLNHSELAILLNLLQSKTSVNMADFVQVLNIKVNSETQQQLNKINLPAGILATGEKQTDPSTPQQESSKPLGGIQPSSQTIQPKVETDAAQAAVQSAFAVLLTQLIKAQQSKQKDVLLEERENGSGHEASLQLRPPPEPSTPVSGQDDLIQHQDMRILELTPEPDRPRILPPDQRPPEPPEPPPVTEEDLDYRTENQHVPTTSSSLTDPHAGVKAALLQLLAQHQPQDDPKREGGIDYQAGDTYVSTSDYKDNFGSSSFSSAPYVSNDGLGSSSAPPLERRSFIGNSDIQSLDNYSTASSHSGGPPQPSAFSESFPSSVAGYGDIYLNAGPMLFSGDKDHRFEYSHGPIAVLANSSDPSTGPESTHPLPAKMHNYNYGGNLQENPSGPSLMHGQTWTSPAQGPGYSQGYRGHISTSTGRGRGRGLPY
T7 sequence (Q99755 whole entry): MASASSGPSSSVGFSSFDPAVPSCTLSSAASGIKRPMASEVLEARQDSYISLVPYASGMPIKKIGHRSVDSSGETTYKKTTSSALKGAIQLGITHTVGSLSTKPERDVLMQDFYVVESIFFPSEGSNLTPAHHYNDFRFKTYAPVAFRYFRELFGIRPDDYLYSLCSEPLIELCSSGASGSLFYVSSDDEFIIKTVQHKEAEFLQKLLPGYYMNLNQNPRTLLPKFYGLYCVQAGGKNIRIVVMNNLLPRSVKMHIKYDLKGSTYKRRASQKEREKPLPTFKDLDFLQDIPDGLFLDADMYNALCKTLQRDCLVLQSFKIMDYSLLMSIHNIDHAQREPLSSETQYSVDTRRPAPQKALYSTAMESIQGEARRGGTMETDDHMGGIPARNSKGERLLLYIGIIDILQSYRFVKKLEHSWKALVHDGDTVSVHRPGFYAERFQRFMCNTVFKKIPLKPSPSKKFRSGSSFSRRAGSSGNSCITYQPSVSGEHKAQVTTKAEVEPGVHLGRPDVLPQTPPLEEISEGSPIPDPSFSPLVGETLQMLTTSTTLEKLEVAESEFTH

Structure (SMILES) | remaining binding at 1 µM [1] [%] | remaining binding at 1 µM [2] [%] | remaining binding at 1 µM [3] [%] | remaining binding at 1 µM [4] [%] | remaining binding at 1 µM ([5]; TYK2 (JH1domain-catalytic)) [%] | remaining binding at 1 µM ([5]; TYK2 (JH2domain-pseudokinase)) [%] | remaining binding at 1 µM [6] [%] | remaining binding at 1 µM [7] [%] | remaining binding at 1 µM [8] [%] | remaining binding at 1 µM [9] [%] | remaining binding at 1 µM [10] [%] | remaining binding at 1 µM [11] [%] | remaining binding at 1 µM [12] [%] | remaining binding at 1 µM [13] [%]
Cc1ccc(C(=O)Nc2ccc(CN3CCN(C)CC3)c(C(F)(F)F)c2)cc1C#Cc1cnc2c(Nc3cnn(C)c3)cccn12 [Example 1, 4-methyl-3-((8-((1-methyl-1H-pyrazol-4-yl)amino)imidazo[1,2-a]pyridin-3-yl)ethynyl)-N-(4-((4-methylpiperazin-1-yl)methyl)-3-(trifluoromethyl)phenyl)benzamide] | 7 | 25 | 76 | 93 | 9 | 100 | 5 | 94 | 0 | 1 | 2 | 0 | 61 | 0
Cc1cn(-c2cc(NC(=O)c3ccc(C)c(C#Cc4cnc5c(Nc6cnn(C)c6)cccn45)c3)cc(C(F)(F)F)c2)cn1 [Example 12, 4-methyl-N-(3-(4-methyl-1H-imidazol-1-yl)-5-(trifluoromethyl)phenyl)-3-((8-((1-methyl-1H-pyrazol-4-yl)amino)imidazo[1,2-a]pyridin-3-yl)ethynyl)benzamide] | 8 | 60 | 100 | 100 | 96 | 100 | 27 | 84 | 7 | 21 | 44 | 15 | 81 | 5
Cc1ccc(NC(=O)C2(C(=O)Nc3ccc(F)cc3)CC2)cc1C#Cc1cnc2c(Nc3cnn(C(C)C)c3)cccn12 [Example 78] | 100 | 83 | 100 | 96 | 97 | 100 | 100 | 98 | 1 | 97 | 87 | 90 | 100 | 11
